Source: patent EP4603105A1, “PHARMACEUTICAL COMPOSITION CONTAINING CYCLIC COMPOUND HAVING SELECTIVE KRAS INHIBITORY EFFECT AGAINST HRAS AND NRAS” (CHUGAI SEIYAKU KABUSHIKI KAISHA, priority 2022, dated 2024)
pIC50: −log10 of the molar value. Where a SMILES comes first, the peptide text is derived from it. Bridges are numbered along the chain shown (N, C = ends). [ ]: non-standard residue; d: D form. The star is where a group is joined. hPhe(3-Cl-4-CF3) = N[C@@H](CCc1ccc(C(F)(F)F)c(Cl)c1)C(=O)O; NPrPhe(4-CF3) = CCCN[C@@H](Cc1ccc(C(F)(F)F)cc1)C(=O)O; NMeAbu(4,4,4-F3) = CN[C@@H](CC(F)(F)F)C(=O)O; NMePhe(4-Me) = CN[C@@H](Cc1ccc(C)cc1)C(=O)O; NMeGly(cPent) = CN[C@H](C(=O)O)C1CCCC1; Pro(4,4-F2) = O=C(O)[C@@H]1CC(F)(F)CN1; Hyp = O=C(O)[C@@H]1C[C@@H](O)CN1; NMeD = CN[C@@H](CC(=O)O)C(=O)O; NMeL = CN[C@@H](CC(C)C)C(=O)O; Morpholide = C1CN(*)CCO1; NMeA = CN[C@@H](C)C(=O)O; Ac5c = NC1(C(=O)O)CCCC1; Aze = O=C(O)[C@@H]1CCN1; NcPrGly = O=C(O)CNC1CC1; NPrGly = CCCNCC(=O)O; Sar = CNCC(=O)O

Assays:
[1] = target: HRAS wild-type protein (Homo sapiens, UniProt P01112); experiment: Binding to HRAS by surface plasmon resonance (SPR), KD and KD ratio to KRAS
Method in brief: (§1)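 Compound binding is evaluated by SPR single-cycle kinetics, with concentrations added intermittently from low to high for 75 s each. Target surfaces carry GDP-loaded biotinylated Avi-RAS at about 100–300 RU, regenerated after each cycle; temperature 30°C. A 1:1 binding model gives KD.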

[2] = system: human lung cancer strain NCI-H441; type: cell-based
Method in brief: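 Proliferation was scored by […] measured after the reagent was added to cultures kept at 37°C in 5% carbon dioxide.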

[3] = target: GDP-bound NRAS wild-type protein (Homo sapiens, UniProt P01111); experiment: Binding to NRAS by surface plasmon resonance (SPR), KD and KD ratio to KRAS
Method in brief: as §1

[4] = ratio of KD for HRAS wild-type protein to KD for KRAS
[5] = ratio of KD for GDP-bound NRAS wild-type protein to KD for KRAS
[6] = ratio of the KD value with respect to HRAS wild-type protein to the KD value with respect to KRAS
[7] = ratio of the KD value with respect to GDP-bound NRAS wild-type protein to the KD value with respect to KRAS

GDP-bound NRAS wild-type protein, sequence (P01111 whole entry): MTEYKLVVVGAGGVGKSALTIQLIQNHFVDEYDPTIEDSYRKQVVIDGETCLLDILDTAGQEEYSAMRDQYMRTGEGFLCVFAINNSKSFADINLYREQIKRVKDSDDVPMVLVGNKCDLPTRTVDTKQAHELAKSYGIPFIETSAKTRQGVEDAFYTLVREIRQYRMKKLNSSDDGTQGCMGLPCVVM
HRAS wild-type protein, sequence (P01112 whole entry): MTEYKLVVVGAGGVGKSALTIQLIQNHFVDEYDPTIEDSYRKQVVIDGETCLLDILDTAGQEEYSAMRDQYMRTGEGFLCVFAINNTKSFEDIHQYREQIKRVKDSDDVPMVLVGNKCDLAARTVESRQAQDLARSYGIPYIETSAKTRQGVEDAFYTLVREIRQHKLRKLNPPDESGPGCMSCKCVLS

SMILES	HRAS /KRAS [1, 4]	pIC50 [2]	NRAS /KRAS [3, 5]	HRAS /KRAS ([1]; ratio of KD value for HRAS wild-type protein to KD value for KRAS (SPR))	NRAS /KRAS ([3]; ratio of KD value for GDP-bound NRAS wild-type protein to KD value for KRAS (SPR))	HRAS /KRAS [1, 6]	NRAS /KRAS [3, 7]
CCO[C@@H]1C[C@H]2C(=O)NC3(CCC3)C(=O)N(C)[C@@H](C3CCCC3)C(=O)N(C)[C@H](C(=O)N(C)C)CC(=O)N(C)[C@@H](CC)C(=O)N[C@@H]([C@@H](C)CC)C(=O)N(C)[C@@H](C)C(=O)N(C)[C@H]3C/C=C\CCN(C3=O)[C@@H](Cc3ccc(C(F)(F)F)cc3)C(=O)N(C)CC(=O)N[C@@H](CCc3cc(F)c(C(F)(F)F)c(F)c3)C(=O)N2C1 [PP1054]	B (a compound having 3 or more and less than 10 is denoted as B)	6.33	A (a compound having 10 or more and less than 20 is denoted as A)	–	–	–	–
CCO[C@@H]1C[C@H]2C(=O)NC3(CC(C)(C)C3)C(=O)N(C)[C@@H](C3CCCC3)C(=O)N(C)[C@H](C(C)C)CC(=O)N(C)[C@@H](CC)C(=O)N[C@@H]([C@@H](C)CC)C(=O)N(C)CC(=O)N(C)[C@H]3C/C=C\CCN(C3=O)[C@@H](CC3CCCCC3)C(=O)N(C)CC(=O)N[C@@H](CCc3cc(F)c(C(F)(F)F)c(F)c3)C(=O)N2C1 [PP1603]	–	6.88	–	B (a compound having 3 or more and less than 10 is denoted as B)	B (a compound having 3 or more and less than 10 is denoted as B)	–	–
CCCN1C(=O)CN(C)C(=O)CN(C)C(=O)[C@H]([C@@H](C)CC)NC(=O)[C@H](CC(C)C)N(C)C(=O)C[C@@H](C(=O)N2CCOCC2)N(C)C(=O)[C@H](C2CCCC2)N(C)C(=O)C2(CCCC2)NC(=O)[C@@H]2C[C@@H](OCC)CN2C(=O)[C@H](CCc2ccc(C(F)(F)F)c(Cl)c2)NC(=O)CN(C)C(=O)[C@@H]1Cc1ccc(C(F)(F)F)cc1 [PP0233] ([NMeL]I[Sar][Sar][NPrPhe(4-CF3)][Sar][hPhe(3-Cl-4-CF3)][Hyp](Et)[Ac5c][NMeGly(cPent)][NMeD]-Morpholide; lactam N-11)	C (A compound having a KD ratio of 0.1 or more and less than 3 is denoted as C)	8.80	B (a compound having 3 or more and less than 10 is denoted as B)	–	–	–	–
CCCN1CC(=O)N(C)[C@@H](Cc2ccc(C)cc2)C(=O)N(C)CC(=O)N[C@@H](CCc2ccc(C(F)(F)F)c(Cl)c2)C(=O)N2CCC[C@H]2C(=O)NC2(CCCC2)C(=O)N(C)[C@@H](C2CCCC2)C(=O)N(C)[C@H](C(=O)N2CCOCC2)CC(=O)N(C)[C@@H](CC(C)C)C(=O)N[C@@H]([C@@H](C)CC)C(=O)N(C)CC1=O [PP0020] ([NMeL]I[Sar][NPrGly][NMePhe(4-Me)][Sar][hPhe(3-Cl-4-CF3)]P[Ac5c][NMeGly(cPent)][NMeD]-Morpholide; lactam N-11)	C (A compound having a KD ratio of 0.1 or more and less than 3 is denoted as C)	8.00	C (A compound having a KD ratio of 0.1 or more and less than 3 is denoted as C)	–	–	–	–
CCO[C@@H]1C[C@H]2C(=O)NC3(CCC3)C(=O)N(C)[C@@H](C3CCCC3)C(=O)N(CC)[C@H](C(=O)N(C)C)CC(=O)N(C)[C@@H](CC)C(=O)N[C@@H]([C@@H](C)CC)C(=O)N(C)CC(=O)N(C)[C@H]3CCCCN(C3=O)[C@@H](Cc3ccc(C(F)(F)F)cc3)C(=O)N(C)CC(=O)N[C@@H](CCc3cc(F)c(C(F)(F)F)c(F)c3)C(=O)N2C1 [PP0643]	–	8.19	–	–	–	B (a compound having 3 or more and less than 10 is denoted as B)	C (A compound having a KD ratio of 0.1 or more and less than 3 is denoted as C)
CCO[C@@H]1C[C@H]2C(=O)NC3(CCC3)C(=O)N(C)[C@@H](C3CCCC3)C(=O)N(C)[C@H](C(=O)N(C)C)CC(=O)N(C)[C@@H](Cc3cccc(C)c3)C(=O)N[C@@H]([C@@H](C)CC)C(=O)N(C)CC(=O)N(C)[C@H]3CCCCCN(C3=O)[C@@H](Cc3ccc(C(F)(F)F)cc3)C(=O)N(C)CC(=O)N[C@@H](CCc3cc(F)c(C(F)(F)F)c(F)c3)C(=O)N2C1 [PP0942]	B (a compound having 3 or more and less than 10 is denoted as B)	7.18	B (a compound having 3 or more and less than 10 is denoted as B)	–	–	–	–
CCCN1C(=O)[C@@H]2CCN2C(=O)[C@H](C)N(C)C(=O)[C@H]([C@@H](C)CC)NC(=O)[C@H](CC(F)(F)F)N(C)C(=O)C[C@@H](C(=O)N2CCOCC2)N(C)C(=O)[C@H](C2CCCC2)N(C)C(=O)C2(CCCC2)NC(=O)[C@@H]2CC(F)(F)CN2C(=O)[C@H](CCc2ccc(C(F)(F)F)c(Cl)c2)NC(=O)CN(C)C(=O)[C@@H]1Cc1ccc(C(F)(F)F)cc1 [PP0203] ([NMeAbu(4,4,4-F3)]I[NMeA][Aze][NPrPhe(4-CF3)][Sar][hPhe(3-Cl-4-CF3)][Pro(4,4-F2)][Ac5c][NMeGly(cPent)][NMeD]-Morpholide; lactam N-11)	C (A compound having a KD ratio of 0.1 or more and less than 3 is denoted as C)	8.55	C (A compound having a KD ratio of 0.1 or more and less than 3 is denoted as C)	–	–	–	–
CCCN1C(=O)[C@@H]2CCN2C(=O)CN(C2CC2)C(=O)[C@H]([C@@H](C)CC)NC(=O)[C@H](CC(C)C)N(C)C(=O)C[C@@H](C(=O)N2CCOCC2)N(C)C(=O)[C@H](C2CCCC2)N(C)C(=O)C2(CCCC2)NC(=O)[C@@H]2CCCN2C(=O)[C@H](CCc2ccc(C(F)(F)F)c(Cl)c2)NC(=O)CN(C)C(=O)[C@@H]1Cc1ccc(C(F)(F)F)cc1 [PP0273] ([NMeL]I[NcPrGly][Aze][NPrPhe(4-CF3)][Sar][hPhe(3-Cl-4-CF3)]P[Ac5c][NMeGly(cPent)][NMeD]-Morpholide; lactam N-11)	B (a compound having 3 or more and less than 10 is denoted as B)	7.91	C (A compound having a KD ratio of 0.1 or more and less than 3 is denoted as C)	–	–	–	–
CCO[C@@H]1C[C@H]2C(=O)NC3(CC(C)(C)C3)C(=O)N(C)[C@@H](C3CCCC3)C(=O)N(C)[C@H](C(=O)N3CCOCC3)CC(=O)N(C)[C@@H](CC(C)C)C(=O)N[C@@H]([C@@H](C)CC)C(=O)N(C)CC(=O)N(C)[C@H]3CCCCCN(C3=O)[C@@H](Cc3ccc(C(F)(F)F)cc3)C(=O)N(C)CC(=O)N[C@@H](CCc3cc(F)c(C(F)(F)F)c(F)c3)C(=O)N2C1 [PP0726]	–	7.49	–	–	–	B (a compound having 3 or more and less than 10 is denoted as B)	B (a compound having 3 or more and less than 10 is denoted as B)
CCCN1CC(=O)NC2(CCCC2)C(=O)N(C)[C@@H](C2CCCC2)C(=O)N(C)[C@H](C(=O)N2CCOCC2)CC(=O)N(C)[C@@H](CC(C)C)C(=O)N[C@@H]([C@@H](C)CC)C(=O)N2CC[C@H]2C(=O)N(C)CC(=O)N(CCC)[C@@H](Cc2ccc(C(F)(F)F)cc2)C(=O)N(C)CC(=O)N[C@@H](CCc2ccc(C(F)(F)F)c(Cl)c2)C1=O [PP0315] ([NMeL]I[Aze][Sar][NPrPhe(4-CF3)][Sar][hPhe(3-Cl-4-CF3)][NPrGly][Ac5c][NMeGly(cPent)][NMeD]-Morpholide; lactam N-11)	B (a compound having 3 or more and less than 10 is denoted as B)	6.83	B (a compound having 3 or more and less than 10 is denoted as B)	–	–	–	–
